The text below walks through data of US11028087B2, “2,6-disubstituted-9-cyclopentyl-9H-purines, use thereof as medicaments, and pharmaceutical compositions” (UNIVERZITA PALACKEHO V OLOMOUCI, priority 2017, dated 2021).

SMILES strings stand for the structures.

In general, EC50 refers to the concentration that produces a half-maximal response. A word on the IC50: it is the point on the concentration scale where inhibition reaches its midpoint. Higher therefore signals weaker potency.

For assay [1], the system named is H1703 (non-small cell lung carcinoma, PDGFRA amplification). Nature of the assay: Calcein AM cytotoxicity assay. Format: cell-based. The conditions noted are these: Homo sapiens, NCI-H1703, 72 h, three days. In a few lines:
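Cells were seeded in 96-well plates and treated next day with compounds at various concentrations in triplicate for three days at 37 °C, 5% CO2. Viability read as calcein fluorescence after 1 h with Calcein AM at 1 μg/ml final.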

The test system of assay [2] is Kasumi-1 (acute myeloid leukemia, KIT mutation Asn822Lys). Put plainly: Calcein AM cytotoxicity assay. Particulars: Homo sapiens, 72 h; Kasumi-1; Calcein AM, three days; read-out: EC50 values (μM) Kasumi-1. Format: cell-based. In a few lines: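 Kasumi-1 cells were grown in RPMI-1640 + 15% FBS, other lines at 37° C., 5% CO2, and seeded the day before compound addition in triplicates at various concentrations. After 3 days, viability was read with Calcein AM (1 μg/ml final, 1 h) as live-cell fluorescence at ex 485/em 538 nm.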

A further assay addresses T1, CDK5/p35 (Homo sapiens, UniProt Q00535).
T1 construct: purchased ProQinase GmbH
Put plainly: Kinase inhibition assay with [γ-33P]ATP. Format: biochemical. The conditions noted are these: histone H1, 0.15 μM ATP. The method in brief: (§1)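 Radiometric [γ-33P]ATP assay in HEPES pH 7.5 with Mg2+/Mn2+: CDK1/Cyclin B (Sf9-expressed) and purchased CDK5/p35 with 1 mg/mL histone H1 at 15 and 0.15 μM ATP respectively; FLT3 WT and FLT3-ITD with AGLT substrate at 1 μM ATP. Reactions stopped with H3PO4, spotted onto phosphocellulose and washed.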

A further assay concerns the target T2, CDK1/Cyclin B (Homo sapiens, UniProt P06493).
T2 construct: made in house; host or cells: Sf9 insect cells, baculoviral infection
Put plainly: Kinase inhibition assay with [γ-33P]ATP. Particulars: histone H1, 15 μM ATP. Format: biochemical. In a few lines: as §1

The test system of the next assay is HL60. Nature of the assay: Calcein AM cytotoxicity assay. Format: cell-based. Particulars: Homo sapiens, HL-60, 72 h, three days.

T2 sequence (P06493 whole entry, species assumed): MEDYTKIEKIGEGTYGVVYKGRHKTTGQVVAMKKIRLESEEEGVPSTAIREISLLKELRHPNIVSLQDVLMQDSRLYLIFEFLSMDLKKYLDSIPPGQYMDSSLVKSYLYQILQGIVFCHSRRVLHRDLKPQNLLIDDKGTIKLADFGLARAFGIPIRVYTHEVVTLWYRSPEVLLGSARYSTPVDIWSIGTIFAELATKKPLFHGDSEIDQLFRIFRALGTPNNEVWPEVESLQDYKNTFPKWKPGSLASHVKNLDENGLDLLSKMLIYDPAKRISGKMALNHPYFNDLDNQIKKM
T2 sequence (P14635 whole entry partner, species assumed): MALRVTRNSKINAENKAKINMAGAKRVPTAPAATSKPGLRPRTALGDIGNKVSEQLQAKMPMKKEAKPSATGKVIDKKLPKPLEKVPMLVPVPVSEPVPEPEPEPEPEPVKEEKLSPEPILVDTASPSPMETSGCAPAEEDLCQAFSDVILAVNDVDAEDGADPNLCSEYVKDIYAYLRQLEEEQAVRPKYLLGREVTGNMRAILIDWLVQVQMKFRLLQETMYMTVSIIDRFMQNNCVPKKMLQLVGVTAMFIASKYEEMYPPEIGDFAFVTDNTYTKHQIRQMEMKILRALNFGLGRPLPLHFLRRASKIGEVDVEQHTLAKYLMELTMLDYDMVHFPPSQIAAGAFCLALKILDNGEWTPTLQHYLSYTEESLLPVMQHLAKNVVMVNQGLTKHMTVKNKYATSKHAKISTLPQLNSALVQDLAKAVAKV
T1 sequence (Q00535 whole entry): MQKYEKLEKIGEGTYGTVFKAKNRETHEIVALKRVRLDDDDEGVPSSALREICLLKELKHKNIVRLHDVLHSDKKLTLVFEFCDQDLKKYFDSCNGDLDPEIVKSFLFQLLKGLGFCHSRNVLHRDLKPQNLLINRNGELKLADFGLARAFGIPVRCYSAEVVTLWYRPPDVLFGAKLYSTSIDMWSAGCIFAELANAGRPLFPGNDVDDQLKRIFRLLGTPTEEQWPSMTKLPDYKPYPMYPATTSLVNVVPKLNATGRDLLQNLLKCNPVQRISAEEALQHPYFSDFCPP
T1 sequence (Q15078 whole entry partner): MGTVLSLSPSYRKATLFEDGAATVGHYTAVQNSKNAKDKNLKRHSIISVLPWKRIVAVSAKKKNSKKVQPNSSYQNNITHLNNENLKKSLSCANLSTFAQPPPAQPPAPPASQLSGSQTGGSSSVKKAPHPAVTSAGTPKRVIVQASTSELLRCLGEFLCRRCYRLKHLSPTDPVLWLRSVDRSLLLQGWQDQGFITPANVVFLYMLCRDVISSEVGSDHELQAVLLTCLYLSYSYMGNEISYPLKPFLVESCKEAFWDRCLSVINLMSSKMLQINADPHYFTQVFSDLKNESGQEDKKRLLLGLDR

Regarding `NC1CCC(Nc2nc(Nc3ccc(N4CCOCC4)cc3)c3ncn(C4CCCC4)c3n2)CC1` (stereo not drawn) [Compound 1], the EC50 in assay [1] was 0.189 µM; in assay [2], 0.944 µM.

Consider `NC1CCC(Nc2nc(Nc3ccc(CN4CCNCC4)cc3)c3ncn(C4CCCC4)c3n2)CC1` (stereo not drawn) [Compound 2], for which the IC50 against CDK5/p35 turned out to be 0.065 µM; at CDK1/Cyclin B, 0.045 µM. Besides, the values for the EC50 (in the assay on HL60; in assay [2]) were 3.51 µM and 0.481 µM, respectively.

As for `CN1CCN(C(=O)c2ccc(Nc3nc(NC4CCC(N)CC4)nc4c3ncn4C3CCCC3)cc2)CC1` (stereo not drawn) [Compound 3], the IC50 was found to be 0.058 µM against CDK5/p35 and 0.034 µM on CDK1/Cyclin B. The EC50 in the assay with HL60 is 1.29 µM; in assay [2] it was 1.23 µM.

Consider `CN1CC2(C1)CN(c1ccc(Nc3nc(NC4CCC(O)CC4)nc4c3ncn4C3CCCC3)cc1)C2` (stereo not drawn) [Compound 7], for which the figures for the IC50 against CDK5/p35 and against CDK1/Cyclin B were 0.03 µM and 0.013 µM, respectively.

`NCCNc1nc(Nc2ccc(CN3CCNCC3)cc2)c2ncn(C3CCCC3)c2n1` [Compound 14]: the values for the IC50 at CDK5/p35 and on CDK1/Cyclin B were 0.065 µM and 0.037 µM, respectively. Moreover, the EC50 in the assay with HL60 was 2.68 µM; in assay [2] it was 0.781 µM.

In the case of `CN1CCN(C(=O)c2ccc(Nc3nc(NCCCCN)nc4c3ncn4C3CCCC3)cc2)CC1` [Compound 27], the EC50 was 0.989 µM with HL60 and 0.637 µM in assay [2].

`NCCCCNc1nc(Nc2ccc(N3CC4(COC4)C3)nc2)c2ncn(C3CCCC3)c2n1` [Compound 28]: the EC50 in assay [1] is 0.214 µM; in assay [2], 0.839 µM.

Turning to `CN(C)CCNc1nc(Nc2ccc(CN3CCOCC3)nc2)c2ncn(C3CCCC3)c2n1` [Compound 172], the EC50 was 0.35 µM in assay [1] and 1.5 µM in assay [2].

For the compound `NC1CCC(Nc2nc(Nc3ccc(N4CCCC4)cc3)c3ncn(C4CCCC4)c3n2)CC1` (stereo not drawn) [Compound 263], the half-maximal inhibitory concentration (IC50) against CDK5/p35 was 0.359 µM; at CDK1/Cyclin B, 0.082 µM. For the same compound, the EC50 with HL60 is 3.93 µM; in assay [2], 0.569 µM.

`NC1CCC(Nc2nc(Nc3ccc(CN4CCOCC4)cc3)c3ncn(C4CCCC4)c3n2)CC1` (stereo not drawn) [Compound 264] came in with an IC50 at CDK5/p35 of 0.034 µM.

In the case of `NCCCCNc1nc(Nc2ccc(N3CCOCC3)cc2)c2ncn(C3CCCC3)c2n1` [Compound 265], the EC50 in assay [1] is 0.482 µM.

Take `CCN1CCN(c2ccc(Nc3nc(NCCCCN)nc4c3ncn4C3CCCC3)cc2)CC1` [Compound 266]: the EC50 in assay [1] is 0.978 µM.

For `NC1CCC(Nc2nc(Nc3ccc(N4CC5(COC5)C4)cc3)c3ncn(C4CCCC4)c3n2)CC1` (stereo not drawn) [Compound 272], the EC50 was 0.412 µM in assay [1] and 0.773 µM in assay [2]. In addition, the values for the IC50 at CDK5/p35 and against CDK1/Cyclin B were 0.059 µM and 0.094 µM, respectively.
